Experimental data as given in article PMC5995184, “Potent anti-leukemic activity of a specific cyclin-dependent kinase 9 inhibitor in mouse models of chronic lymphocytic leukemia” (Oncotarget, 2018).

Tests used:
CDK9-Cyclin T1 = molecular target: T1, CDK9-Cyclin T1 (Homo sapiens, UniProt P50750); assay: FRET-based LANCE Ultra in vitro enzymatic kinase assay, CDK9; format: biochemical; conditions: CDK9 versus other CDKs
T1 construct: purchased Invitrogen
Method: (§1) IC50 values for CDK inhibitors were determined using the fluorescence resonance energy transfer (FRET)-based LANCE Ultra KinaSelect Ser/Thr kit (Perkin Elmer). Kinase activity and inhibition were measured according to the manufacturer’s instructions and as previously described. […] FRET signals were recorded in a time-resolved manner in a Perkin Elmer EnVision reader. Purified cyclin-kinase pairs were obtained from the following suppliers: Carna Biosciences (CDK1-Cyclin B1, CDK6-Cyclin D3, CDK7-Cyclin H-MAT1), ProQinase (CDK2-Cyclin A) and Invitrogen (CDK9-Cyclin T1).
(§2) Data were analyzed with GraphPad Prism 7 software. Differences were assessed by unpaired or paired Student t tests if not indicated otherwise. Two-sided probabilities of less than 0.05 were considered significant. Nonlinear regression sigmoidal dose-response curve fit was used to determine the IC50 values and to generate graphs.

CDK4 = CDK4 (Homo sapiens, UniProt P11802); assay: FRET-based LANCE Ultra in vitro enzymatic kinase assay, CDK4; format: biochemical
Method: as §1, §2

[1] = test system: blood and splenic leukocytes of wild-type mice; assay: Wild-type littermate control mice, oral LDC526, blood and spleen analysis; format: in vivo
From the text: Another widely used preclinical CLL model are TCL1 transgenic mice. The TCL1 transgenics represent a constitutive CLL model not involving the adoptive transfer of cells. This model mirrors the natural course of human IgVH-unmutated CLL including its disease progression. In addition, this model has also been widely used by others to test novel therapeutic molecules. […] Consecutive blood sampling allowed us to carry out a longitudinal study in individual TCL1 and control mice. For this, we chose a cohort of TCL1 and littermate control mice, which were 9-12 months old (Figure 5A). We chose TCL1 transgenics with high peripheral CLL cell (CD19+CD5+) counts (14.6±7.4/nl, mean±SEM). Given the presumably high leukemic burden in these aged TCL1 mice and the reduced general condition of some NSG mice receiving 75 mg/kg for 5 days we decided to dose TCL1 mice with 50 mg/kg daily for two consecutive days (Figure 5A). As the experiment was longitudinally designed and there was no effect expected of administering carrier to wild-type control mice we omitted this control group and established three experimental groups (Figure 5A). In order to minimize stress by collecting blood specimens we sampled blood three times, 8 days apart (days -5, +3 and +11; Figure 5A). Compared to blood smears prepared before commencing LDC526 treatment a marked decrease of peripheral blood leukocytes and CLL cells was observed two days post the last LDC526 administration to TCL1 transgenic mice (Figure 5B). In contrast to the carrier control treated TCL1 mice, white blood cell counts (WBC) dropped in LDC526-treated wild-type and TCL1 mice (Figure 5C). In comparison to wild-type control mice, where WBC dropped to 34% of baseline values, the WBC decrease in TCL1 mice was more dramatic dropping to 8% of baseline values (Figure 5D).
On day +11 (Figure 5A) the experiment was terminated as planned and spleens of the experimental mice were harvested. To be able to assess the impact of LDC526 on wild-type spleens we included n=3 of non-treated age-matched wild-type littermate mice as an additional experimental control group in the final spleen analysis. A caveat of this final spleen analysis posed the fact that in contrast to the longitudinal blood analysis, baseline spleen data of individual aged TCL1 mice were not available. As longitudinal analysis was not possible, we now compared spleen parameters between cohorts. Importantly, it is unknown to which extent the amount of circulating peripheral blood TCL1 CLL cells determined at baseline correlates with splenomegaly. […]
All mice were bred and housed at the University Hospital Essen animal care facility. […] Peripheral blood counts were determined with the VetABC analyzer (scil, Viernheim, Germany). […]

CDK1-Cyclin B1 = molecular target: T2, CDK1-Cyclin B1 (Homo sapiens, UniProt P06493); assay: FRET-based LANCE Ultra in vitro enzymatic kinase assay, CDK1; format: biochemical
T2 construct: purchased Carna Biosciences
Method: as §1, §2

T2 sequence (P06493 whole entry): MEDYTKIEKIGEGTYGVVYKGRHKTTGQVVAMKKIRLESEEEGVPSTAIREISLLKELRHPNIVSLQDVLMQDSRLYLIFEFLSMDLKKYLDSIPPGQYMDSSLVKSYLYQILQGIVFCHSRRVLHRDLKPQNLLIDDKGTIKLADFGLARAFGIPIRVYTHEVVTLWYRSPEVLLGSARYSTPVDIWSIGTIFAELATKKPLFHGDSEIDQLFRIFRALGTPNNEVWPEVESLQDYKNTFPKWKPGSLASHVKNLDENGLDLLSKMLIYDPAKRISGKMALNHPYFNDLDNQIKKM
T2 sequence (P14635 whole entry partner): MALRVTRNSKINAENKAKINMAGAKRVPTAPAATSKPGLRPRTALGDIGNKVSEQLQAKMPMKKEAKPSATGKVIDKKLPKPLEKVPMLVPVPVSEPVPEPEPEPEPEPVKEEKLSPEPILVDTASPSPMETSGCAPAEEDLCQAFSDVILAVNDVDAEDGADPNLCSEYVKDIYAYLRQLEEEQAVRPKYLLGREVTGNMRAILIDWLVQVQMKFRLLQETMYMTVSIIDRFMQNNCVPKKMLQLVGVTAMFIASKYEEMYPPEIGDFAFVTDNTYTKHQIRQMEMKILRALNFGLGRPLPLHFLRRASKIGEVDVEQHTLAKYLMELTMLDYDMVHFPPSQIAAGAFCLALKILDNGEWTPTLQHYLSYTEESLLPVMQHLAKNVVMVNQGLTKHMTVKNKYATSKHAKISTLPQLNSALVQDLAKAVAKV
T1 sequence (P50750 whole entry): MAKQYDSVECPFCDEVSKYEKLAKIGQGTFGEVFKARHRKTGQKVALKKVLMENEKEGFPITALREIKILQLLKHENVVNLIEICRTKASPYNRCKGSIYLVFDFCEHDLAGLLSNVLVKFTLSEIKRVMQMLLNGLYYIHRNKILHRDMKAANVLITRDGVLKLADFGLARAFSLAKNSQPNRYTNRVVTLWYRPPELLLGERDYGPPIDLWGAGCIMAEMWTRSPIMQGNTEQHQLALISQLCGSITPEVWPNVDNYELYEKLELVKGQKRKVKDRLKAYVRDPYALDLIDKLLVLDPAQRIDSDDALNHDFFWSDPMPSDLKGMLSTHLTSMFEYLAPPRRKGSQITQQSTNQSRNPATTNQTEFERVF
T1 sequence (O60563 whole entry partner): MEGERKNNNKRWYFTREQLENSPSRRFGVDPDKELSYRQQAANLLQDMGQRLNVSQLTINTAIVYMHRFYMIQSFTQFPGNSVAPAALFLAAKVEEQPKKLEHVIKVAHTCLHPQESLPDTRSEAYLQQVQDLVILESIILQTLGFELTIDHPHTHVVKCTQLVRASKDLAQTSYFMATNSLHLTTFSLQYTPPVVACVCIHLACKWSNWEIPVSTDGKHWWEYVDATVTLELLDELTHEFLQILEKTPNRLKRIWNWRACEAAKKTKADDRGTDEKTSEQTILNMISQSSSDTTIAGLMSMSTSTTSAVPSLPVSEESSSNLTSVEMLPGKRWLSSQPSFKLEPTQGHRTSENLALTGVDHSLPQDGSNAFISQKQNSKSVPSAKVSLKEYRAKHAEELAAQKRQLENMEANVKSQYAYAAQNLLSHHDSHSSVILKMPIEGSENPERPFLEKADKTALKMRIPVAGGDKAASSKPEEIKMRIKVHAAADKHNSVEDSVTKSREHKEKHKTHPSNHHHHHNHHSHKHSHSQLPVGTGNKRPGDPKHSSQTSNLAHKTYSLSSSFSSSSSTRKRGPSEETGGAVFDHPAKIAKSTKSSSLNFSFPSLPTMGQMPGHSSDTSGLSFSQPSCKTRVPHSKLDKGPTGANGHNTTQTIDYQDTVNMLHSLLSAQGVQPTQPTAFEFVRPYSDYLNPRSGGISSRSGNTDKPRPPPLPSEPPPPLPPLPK
CDK4, sequence (P11802 whole entry): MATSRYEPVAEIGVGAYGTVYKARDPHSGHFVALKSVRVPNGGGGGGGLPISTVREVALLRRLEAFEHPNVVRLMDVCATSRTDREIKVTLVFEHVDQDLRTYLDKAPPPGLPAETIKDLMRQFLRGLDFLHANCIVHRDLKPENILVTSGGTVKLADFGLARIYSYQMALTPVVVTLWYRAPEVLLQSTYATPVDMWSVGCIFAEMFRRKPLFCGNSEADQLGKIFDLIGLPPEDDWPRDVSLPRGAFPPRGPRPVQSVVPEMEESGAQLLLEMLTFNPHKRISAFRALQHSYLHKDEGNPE
CDK4, sequence (P24385 whole entry partner): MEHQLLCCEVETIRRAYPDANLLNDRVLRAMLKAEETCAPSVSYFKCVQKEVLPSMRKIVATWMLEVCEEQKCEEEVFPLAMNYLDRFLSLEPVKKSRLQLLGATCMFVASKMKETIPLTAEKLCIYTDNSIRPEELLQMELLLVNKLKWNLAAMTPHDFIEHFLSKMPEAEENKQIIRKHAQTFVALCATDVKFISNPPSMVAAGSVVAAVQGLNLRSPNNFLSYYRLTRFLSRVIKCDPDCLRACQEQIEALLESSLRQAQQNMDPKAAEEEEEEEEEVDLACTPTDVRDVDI

COc1cc(F)ccc1-c1ncnc(Nc2cccc(CS(N)(=O)=O)c2)n1 [LDC526, (3-((4-(4-fluoro-2-methoxyphenyl)-1,3,5-triazin-2-yl)amino)phenyl)methane-sulfonamide]
selectivity against other CDKs (CDK9-Cyclin T1): at least 50 fold | selectivity versus CDK9 compared to CDK4 (CDK4): 291 fold | WBC, percent of baseline values ([1]; 50 mg/kg daily for two days, day +3): 34% | concentration of wild-type blood T cells ([1]; 50 mg/kg for two days): halved | splenic B cell numbers, percent of untreated mice ([1]; day +11): 31% | B cells, percent of baseline levels ([1]; peripheral blood): 3.7% | selectivity versus CDK9 compared to CDK1 (CDK1-Cyclin B1): 82 fold
